Assay [1] relates to splenic cells of Lewis rats. Briefly: Test 2: Determination of T-cell growth inhibitor activity (T lymphocyte blastogenesis, Concanavalin A, AlamarBlue). Format: cell-based. The note with it: Lewis rat splenic cells, Concanavalin A 1 μg/mL, 72 hours, read-out: Test 2: T-cell growth inhibitory activity IC50. Here is the method:
The T lymphocyte blastogenesis test was performed in microtiter plates with each well containing 1.5×10^5 splenic cells of Lewis rats in 0.1 mL RPMI-1640 medium supplemented with 10% fetal bovine serum (FBS), […] 2-mercaptoethanol, penicilln (100 units/mL) and streptomycin (100 μg/mL), to which Concanavalin A (1 μg/mL) was added. The cells were incubated at 37° C. in a humidified atmosphere of 5% CO2 for 72 hours. After the culture period, suppressive activities of the test compounds in T lymphocyte blastogenesis were quantified by AlamarBlue (trademark) Assay. The test samples were dissolved in DMSO and further diluted with RPMI-1640 medium and added to the culture. The activities of the test compounds were expressed as IC50.
On the technique in general: Alamar Blue is a resazurin reagent that responds to reducing activity.

The subject of assay [2] is human histone deacetylase (partially purified from Jurkat cells). The experiment in a line: Test 1: Determination of histone deacetylase inhibitor activity ([3H] acetyl histone deacetylation). The format is biochemical. The settings on record: partially purified human HDAC from Jurkat cells, [3H] acetyl-labeled histones, 25° C., 30 minutes; read-out: Test 1: HDAC inhibitory activity IC50. The procedure:
The partial purification of human histone deacetylase, the preparation of [^3H] acetyl histones, and the assay for histone deacetylase activity were performed basically according to the method as proposed by Yoshida et al. as follows.
The human histone deacetylase was partially purified from human T cell leukemia Jurkat cells. Jurkat cells (5×10^8 cells) were suspended in 40 mL of the HDA buffer consisting of 15 mM potassium phosphate, pH 7.5, 5% glycerol and 0.2 mM EDTA. After homogenization, nuclei were collected by centrifugation (35,000×g, 10 min) and homogenized in 20 mL of the same buffer supplemented with 1 M (NH4)2SO4. The viscous homogenate was sonicated and clarified by centrifugation (35,000×g, 10 min), and the deacetylase was precipitated by raising the concentration of (NH4)2SO4 to 3.5 M. The precipitated protein was dissolved in 10 mL of the HDA buffer and dialyzed against 4 liters of the same buffer. The dialyzate was then loaded onto a DEAE-cellulose (Whatman DE52) column (25×85 mm) equilibrated with the same buffer and eluted with 300 mL of a linear gradient (0-0.6 M) of NaCl. A single peak of histone deacetylase activity appeared between 0.3 and 0.4 M NaCl.
To obtain [^3H] acetyl-labeled histone as the substrate for the histone deacetylase assay, 1×10^8 cells of Jurkat in 20 mL of RPMI-1640 medium (supplemented with 10% FBS, penicillin (50 units/mL) and streptomycin (50 μg/mL)) were incubated with 300 MBq [^3H] sodium acetate in the presence of 5 mM sodium butyrate for 30 minutes in 5% CO2-95% air atmosphere at 37° C. in a 75 cm^2 flask, harvested into a centrifuge tube (50 mL), collected by centrifugation at 1000 rpm for 10 minutes, and washed once with phosphate-buffered saline. The washed cells were suspended in 15 mL of ice-cold lysis buffer (10 mM Tris-HCl, 50 mM sodium bisulfite, 1% Triton X-100, 10 mM MgCl2, 8.6% sucrose, pH 6.5). After Dounce homogenization (30 stroke), the nuclei were collected by centrifugation at 1000 rpm for 10 minutes, washed 3 times with 15 mL of the lysis buffer, and once with 15 mL of ice-cooled washing buffer (10 mM Tris-HCl, 13 mM EDTA, pH 7.4) successively. The pellet was suspended in 6 mL of ice-cooled water using a mixer, and 68 μl of H2SO4 was added to the suspension to give a concentration of 0.4 N. After incubation at 4° C. for 1 hour, the suspension was centrifuged for 5 minutes at 15,000 rpm, and the supernatant was taken and mixed with 60 mL of acetone. After overnight incubation at −20° C., the coagulated material was collected by microcentrifugation, air-dried, and stored at −80° C.
For the standard assay, 10 μl of [^3H] acetyl-labeled histones were added to 90 μl of the enzyme fraction, and the mixture was incubated at 25° C. for 30 minutes. The reaction was stopped by addition of 10 μl of HCl aq. The released [^3H] acetic acid was extracted with 1 mL of ethyl acetate, and 0.9 mL of the solvent layer was taken into 10 mL of toluene scintillation solution for determination of radioactivity.

As usually defined, the IC50 is the point on the concentration scale where inhibition reaches its midpoint.

Structures can show the parent of a compound that is named as a salt.

With `O=C(/C=C/c1cnc(NCCNC(=O)c2ccc(Cl)cc2)c(Cl)c1)NO` [Example 3, 4-chloro-N-[2-({3-chloro-5-[(1E)-3-(hydroxyamino)-3-oxo-1-propen-1-yl]-2-pyridinyl}amino)ethyl]benzamide hydrochloride], the half-inhibitory concentration (IC50) in assay [1] came out at 18 nM; in assay [2] it was 1.7 nM.
For `O=C(/C=C/c1cnc(NCCNC(=O)C2CCCCC2)c(Cl)c1)NO` [Example 10], in that order: 17 nM and 6.8 nM.
`C[C@H](CN(C)Cc1ccc(Cl)cc1)Nc1ncc(/C=C/C(=O)NO)cc1Cl` [Example 11]: the IC50 in assay [1] was 6.2 nM; in assay [2], 8.8 nM.
The like results for `O=C(/C=C/c1cnc(NCCOc2ccccc2)cn1)NO` [Example 23] were, in that order, 21 nM and 6 nM.
For `C[C@H](CN(C)Cc1ccccc1)Nc1cnc(/C=C/C(=O)NO)cn1` [Example 36], in that order: 1.5 nM and 4 nM.
For `C[C@H](CN(C)CC1CCCCC1)Nc1cnc(/C=C/C(=O)NO)cn1` [Example 39], in that order: 0.23 nM and 0.78 nM.
For the molecule `C[C@@H](Nc1ncc(/C=C/C(=O)NO)cc1Cl)C(=O)NCC1CCCCC1` [Example 49, N^2-{3-chloro-5-[(1E)-3-(hydroxyamino)-3-oxoprop-1-en-1-yl]pyridin-2-yl}-N^1-(cyclohexylmethyl)-D-alaninamide], the results for the IC50 in assay [1] and in assay [2] were 17 nM and 25 nM, respectively.
Consider `CC(C)[C@@H](Nc1cnc(/C=C/C(=O)NO)cn1)C(=O)NCC1CCCCC1` [Example 57], for which the IC50 in assay [1] was found to be 4.7 nM; in assay [2], 9.1 nM.
For `C[C@H](CNC(=O)C1CCCCC1)Nc1cnc(/C=C/C(=O)NO)cn1` [Example 66], in that order: 21 nM and 3.9 nM.
The like results for `C[C@@H](Nc1cnc(/C=C/C(=O)NO)cn1)C(=O)NC1Cc2ccccc2C1` [Example 86] were, in that order, 28 nM and 8.2 nM.
For `C[C@@H](Nc1cnc(/C=C/C(=O)NO)cn1)C(=O)NC1CCCCCC1` [Example 87], in that order: 3.2 nM and 2.3 nM.
As to `C[C@@H](Nc1cnc(/C=C/C(=O)NO)cn1)C(=O)N[C@]12CC3C[C@H](C[C@H](C3)C1)C2` [Example 88], the half-inhibitory concentration (IC50) in assay [1] was 1.5 nM; in assay [2] it was 2.7 nM.
As to `CC(C)[C@@H](Nc1cnc(/C=C/C(=O)NO)cn1)C(=O)Nc1ccccc1` [Example 91], the 50% inhibitory concentration (IC50) was determined as 2.6 nM in assay [1] and 1.5 nM in assay [2].

Source of the values: US20100069388A1, “N-HYDROXYACRYLAMIDE COMPOUNDS” (ASTELLAS PHARMA INC., priority 2006, published 2010).
